Patent US8742123B2, “HIV integrase inhibitors from pyridoxine” (TaiMed Biologics, Inc., priority 2008, dated 2014)
Where two headings read alike, the source gives them in different places.

Columns and labels:
NL4.3 virus = experiment: multi-cycle antiviral activity in absence and presence of human serum, p24 ELISA; assay type: cell-based, HIV-1; conditions: for EC50: Human immunodeficiency virus 1, 144 h
Description: (§1) Protein binding was tested by Rapid Equilibrium Dialysis (RED) method (The RED (Rapid equilibrium Dialysis) Device inserts instruction manual. Pierce, Rockford Ill.). […] The red chamber was loaded with 0.3 mL of samples containing compounds. The white chamber contained 0.5 mL of D-PBS buffer only. The plate was incubated at 37° C. while shaking at 150 rpm for 5 hours. Aliquots from both chambers were analyzed by LC/MS/MS. The multi-cycle antiviral activity in the absence and presence of human serum was determined by p24 ELISA measurement after 6 days of NL4.3 virus infection.

CYP3A4 = biological target: T1, CYP3A4 (Homo sapiens, UniProt P08684); experiment: human CYP inhibition in human liver microsomes; assay type: in vitro ADME; conditions: CYP3A4 (printed CYP34A)
T1 construct: the incubation medium contained 0.3 mg/mL human liver microsomes; from tissue; host or cells: human liver microsomes
Description: (§2) For the human CYP inhibition experiments, the incubation medium contained 0.3 mg/mL human liver microsomes, 100 mM phosphate buffer pH 7.4, 5 mM MgCl2, 1 mM EDTA. The respective substrates for CYP3A4, CYP2C9 and CYP2D6 were added at various concentrations in the presence or absence of the compounds tested. After pre-incubation, the reaction was initiated by the addition of NADPH at final concentration 1 mM. Incubation times were 10, 60 and 15 minutes for CYP3A4, CYP2C9 and CYP2D6, respectively (Walsky R L and Obach R S., Drug Metabolism and Disposition, 2004, 32, 647-660). GraphPad Prism software was used for data analysis.

CYP2C9 = biological target: T2, CYP2C9 (Homo sapiens, UniProt P11712); experiment: human CYP inhibition in human liver microsomes; assay type: in vitro ADME
T2 construct: the incubation medium contained 0.3 mg/mL human liver microsomes; from tissue; host or cells: human liver microsomes
Description: as §2

wild type NL-4.3 = experiment: multi-cycle infection assay in MT-4 cells (MTT cytoprotection); assay type: cell-based, HIV-1; conditions: Human immunodeficiency virus 1, MT4, 144 h, read-out: EC50 (nM) multi-cycle
Description: The antiviral efficacies of the integrase inhibitor compounds of the invention were evaluated based on EC50 measures obtained from two different in vitro HIV infection assay using cultured MT-4 cells: (1) a multi-cycle infection where cells were infected with wild type NL-4.3) and (2) a single-cycle infection where the cells were infected with a luciferase-bearing, envelope defective (env-) NL-4.3 virus pseudotyped with HIV-1 env (HXBc2.
The incubation period for the multi-cycle infection assay was 6 days. Cell viability (cytoprotection) and EC50 were determined using the colorimetric MTT assay (A. J. Japour et al, Antimicrobial Agents and Chemotherapy, 37, 1095-1101, 1993 and R. Pauwels et al. Journal of Virological Methods, 20, 309-321, 1988).

[1] = human liver microsome stability; assay type: in vitro ADME; conditions: pH 7.4, 1 μM compound
Description: After pre-incubation, the assay was started by the addition of 1 μM of compound. Samples were taken after 0, 15, 30, 60, 90 and 120 minutes of incubation (Fisher M B, Drug Metabolism and Disposition, 2000, 28, 560-566). GraphPad Prism software was used for data analysis. The results, showing that the compounds of the invention are metabolically stable in Human liver microsomes, are provided in Table 7 below.

[2] = protein binding by Rapid Equilibrium Dialysis (RED), 10% FBS-RPMI; assay type: in vitro ADME; conditions: bovine, 37° C.
Description: as §1

[3] = protein binding by Rapid Equilibrium Dialysis (RED), human serum; assay type: in vitro ADME; conditions: 37° C., 100% HS
Description: as §1

[4] = biological target: T3, recombinant HIV-1 integrase (Human immunodeficiency virus type 1 group M subtype B, UniProt P12497); experiment: integrase strand transfer assay; assay type: biochemical; conditions: compounds added after assembly, 10% DMSO, read-out: ST IC50
T3 construct: Recombinant integrase (250 ng/well) was assembled onto the immobilized donor oligonucleotide
Description: IC50 was determined for the compounds of the inventions based on data generated in strand transfer assays. The IC50 is a measure of the ability of the compounds tested to inhibit the integration of 3′-processed oligonucleotides by recombinant HIV-1 integrase.
Strand transfer assays were performed essentially as described in Hazuda, D. J.; Felock, P.; Hastings, J. C.; Pramanik, B.; Wolfe, A. J. Virol. 1997, 71, 7005-7011). Donor DNA (1.5 pmol/well), biotinylated on the 5′ end of the strand processed by integrase, was immobilized onto streptavidin-coated microtiter plates. Recombinant integrase (250 ng/well) was assembled onto the immobilized donor oligonucleotide in reaction buffer (20 mM Hepes, pH 7.6, 5 mM B-mercaptoethanol, 50 ug/mL bovine serum albumin) containing 30 mM MnCl2. Excess enzyme was removed, and the complexes were washed extensively prior to the addition of the target DNA substrate. The target DNA (0.75 pmoles/well) substrate was labeled on each 3′ end with FITC. After strand transfer, the FITC-labeled products were detected using an anti-FITC antibody conjugated with alkaline phosphatase (Roche) and a chemiluminescent substrate (Tropix CSPD with Sapphire II enhancer, Applied Biosystems). The assay was performed in a final concentration of 10% DMSO. To specifically evaluate inhibition of strand transfer, compounds were added after assembly, just prior to the addition of the target DNA.
The results of the integrase strand transfer assay are reported as IC50 values. IC50 values were determined using a sigmoidal dose-response equation. The formula used for calculating % inhibition was: % Inhibition=[1-(sample counts/average of positive control)]*100. […] Using GraphPad Prism or ActivityBase (IDBS) software IC50 was determined using following sigmoidal dose-response equation: Y=(A+((B−A)/(1+((C/X)^D))))

[5] = pharmacokinetic (PK) profile in rats; assay type: in vivo; conditions: female Sprague-Dawley rats, 5 mg/kg intravenously, 50 mg/kg orally, plasma LC/MS/MS
Description: Female Sprague-Dawley rats were randomly selected and assigned to two groups. A group of 13 rats were administered 5 mg/kg of compound 2 intravenously. A second group of 8 rats were administered 50 mg/kg of compound 2 orally. Following the dosing, blood was collected at 7 different time points. Plasma samples obtained from the blood samples were analyzed by LC/MS/MS and the bioavailability of compound 2 was determined.

HIV-1 isolate 94US33931N = experiment: acute infection assay in PHA-stimulated PBMCs, supernatant RT activity; assay type: cell-based; conditions: Human immunodeficiency virus 1, PBMC, 144 h, 6 day incubation
Description: (§3) Acute infection assays using fresh human phytohemagglutinin (PHA)-stimulated peripheral blood mononuclear cells (PBMCs) were carried out. PBMCs were stimulated with IL-2 and infected with one of two wild-type drug-sensitive clinical HIV-1 isolates. The strains HIV-1 used for the infections, 91US005 (primary R5 strain of HIV-1) and 94US33931N, are both Group M, Subtype B viruses. Antiviral activity was determined as a reduction in supernatent reverse transcriptase (RT) activity after a 6 day incubation.

HIV-1 isolate 91US005 = experiment: as above; assay type: cell-based; conditions: Human immunodeficiency virus 1, PBMC, 144 h, HIV-1 isolate 91US005, 6 day incubation
Description: as §3

[6] = MT-4 cells, wild type NL-4.3, 6 days, MTT
[7] = human liver microsomes, 1 mM NADPH and 1 mM UDPGA, read-out: Half-life in HLM (hrs) NADPH/UDPGA (converted)
[8] = human liver microsomes, 1 mM NADPH, read-out: Half-life in HLM (hrs) NADPH (converted)
[9] = human liver microsomes, 1 mM UDPGA, read-out: Half-life in HLM (hrs) UDPGA (converted)

T1 sequence (P08684 whole entry): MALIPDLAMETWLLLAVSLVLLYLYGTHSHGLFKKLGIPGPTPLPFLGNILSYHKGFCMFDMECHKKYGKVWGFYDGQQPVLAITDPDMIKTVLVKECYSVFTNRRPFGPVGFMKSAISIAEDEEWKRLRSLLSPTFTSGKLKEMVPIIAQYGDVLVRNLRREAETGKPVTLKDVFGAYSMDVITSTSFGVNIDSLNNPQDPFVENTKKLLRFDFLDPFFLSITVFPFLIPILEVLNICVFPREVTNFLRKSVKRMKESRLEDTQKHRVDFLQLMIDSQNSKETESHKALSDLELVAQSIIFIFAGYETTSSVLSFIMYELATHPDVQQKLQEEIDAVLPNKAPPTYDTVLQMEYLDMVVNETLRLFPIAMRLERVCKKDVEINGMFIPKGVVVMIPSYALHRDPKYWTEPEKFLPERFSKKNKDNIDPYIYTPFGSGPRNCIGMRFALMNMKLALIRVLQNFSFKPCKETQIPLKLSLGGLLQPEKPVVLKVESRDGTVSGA
T2 sequence (P11712 whole entry): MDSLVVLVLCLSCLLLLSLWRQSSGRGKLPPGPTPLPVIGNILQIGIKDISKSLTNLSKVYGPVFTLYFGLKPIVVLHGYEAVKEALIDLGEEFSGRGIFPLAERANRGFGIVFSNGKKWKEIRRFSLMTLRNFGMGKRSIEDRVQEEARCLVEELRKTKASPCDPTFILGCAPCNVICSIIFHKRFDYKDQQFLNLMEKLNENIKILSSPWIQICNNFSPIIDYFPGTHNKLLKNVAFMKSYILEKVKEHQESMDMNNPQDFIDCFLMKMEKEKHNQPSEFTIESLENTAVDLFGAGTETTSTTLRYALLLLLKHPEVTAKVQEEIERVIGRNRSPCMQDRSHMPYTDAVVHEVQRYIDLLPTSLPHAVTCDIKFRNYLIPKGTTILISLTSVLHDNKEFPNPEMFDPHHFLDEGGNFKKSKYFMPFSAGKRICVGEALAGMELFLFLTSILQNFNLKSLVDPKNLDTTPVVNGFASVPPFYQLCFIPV

| Ki (CYP3A4) [µM] | half-life at 1 μM [1, 7] [h] | half-life at 1 μM [1, 8] [h] | half-life at 1 μM [1, 9] [h] | Compound | EC50 (wild type NL-4.3; [6]) [nM] | fraction unbound at 5 hours, 1 uM ([2]; 10% FBS-RPMI) | fraction unbound at 5 hours, 1 uM ([3]; human serum (100%)) | EC50 (HIV-1 isolate 94US33931N) [µM] | EC50 (HIV-1 isolate 91US005) [µM] | other results |
| --- | --- | --- | --- | --- | --- | --- | --- | --- | --- | --- |
| 5.1 | 3.9 | 7.4 | 19.7 | O=C(NCc1ccc(F)cc1)c1cnc(C(=O)NOCc2ccccc2)c(OCc2ccccc2)c1CO [Example 1, N^2,3-bis(benzyloxy)-N^5-(4-fluorobenzyl)-4-(hydroxymethyl)pyridine-2,5-dicarboxamide] | > 10000 | 0.475 | 0.11 | – | – | Fold-change with HS (NL4.3 virus; EC50 with 40% HS versus 10% FBS): 2.1; EC50 (NL4.3 virus; 10% FBS + 40% HS, p24 ELISA after 6 days, read-out: EC50 (uM) 10% FBS + 40% HS): 0.481 µM; EC50 (NL4.3 virus; 10% FBS, p24 ELISA after 6 days, read-out: EC50 (uM) 10% FBS): 0.227 µM; Ki (CYP2C9): 63.6 µM |
| 587 | 1.95 | 6.18 | 3.8 | O=C(NCc1ccc2c(c1)OCO2)c1cnc(C(=O)NOCc2ccccc2)c(OCc2ccccc2)c1CO [Example 3, N^5-(benzo[d][1,3]dioxol-5-ylmethyl)-N2,3-bis(benzyloxy)-4-(hydroxymethyl)pyridine-2,5-dicarboxamide] | > 10000 | – | – | 0.03 | 0.093 | – |
| – | – | – | – | Cc1nnc(C(=O)NC(C)(C)c2nc(C(=O)NCc3ccc(F)cc3)c(O)c(=O)n2C)o1 [Raltegravir, reference compound] | – | – | – | – | – | EC50 (NL4.3 virus; read-out: EC50 (uM) 10% FBS): 0.047 µM; EC50 (NL4.3 virus; read-out: EC50 (uM) 10% FBS + 40% HS): 0.064 µM; EC50 (wild type NL-4.3): 20 nM; half-life at 1 μM ([1]; microsomes, 1 mM NADPH and 1 mM UDPGA, read-out: Half-life in HLM (hrs) NADPH/UDPGA (converted)): 11 h; half-life at 1 μM ([1]; microsomes, 1 mM NADPH, read-out: Half-life in HLM (hrs) NADPH (converted)): 19.7 h; half-life at 1 μM ([1]; microsomes, 1 mM UDPGA, read-out: Half-life in HLM (hrs) UDPGA (converted)): 7.03 h; fraction unbound at 5 hours, 1 uM ([2]; serum): 0.653; fraction unbound at 5 hours, 1 uM ([3]; serum): 0.133 |

| Compound | Ki (CYP3A4) [µM] | half-life at 1 μM [1, 7] [h] | half-life at 1 μM [1, 8] [h] | half-life at 1 μM [1, 9] [h] | EC50 (wild type NL-4.3; [6]) [nM] | fraction unbound at 5 hours, 1 uM ([2]; 10% FBS-RPMI) | fraction unbound at 5 hours, 1 uM ([3]; human serum (100%)) | EC50 (HIV-1 isolate 94US33931N) [µM] | EC50 (HIV-1 isolate 91US005) [µM] | other results |
| --- | --- | --- | --- | --- | --- | --- | --- | --- | --- | --- |
| O=C(NCc1ccc(F)cc1)c1cnc(C(=O)NO)c(O)c1CO [Example 2, N^5-(4-fluorobenzyl)-N^2,3-dihydroxy-4-(hydroxymethyl)pyridine-2,5-dicarboxamide] | – | 5.9 | 5 | 16 | 358 | 0.681 | 0.155 | 0.123 | 0.076 | IC50 [4]: 0.303 µM; adsorption / PK profile (FIG. 1) [5]: high adsorption |
